Where “and” joins values, the source holds several entries; their conditions need not be identical. Equal values may be shown once.
Columns and labels:
[1] = system: TICs; experiment: Seahorse extracellular flux analysis (OCR, ECAR); assay type: cell-based; conditions: for FCCP-induced OCR: Nanog silenced TICs, ETO 100 μM
Experimental: To measure cellular bioenergetics using extracellular flux, a Seahorse […] Extracellular Flux Analyzer was used following the published protocol (Ahfeldt et al., 2012; Ferrick et al., 2008). […] Cells were plated in gelatin-coated XF 24-well cell culture microplates at 2-7.5×10^4 cells/well (Seahorse Bioscience) and incubated in pre-warmed unbuffered DMEM medium (DMEM containing 2 mM GlutaMAX, 1 mM sodium pyruvate, 1.85 g l^−1 NaCl and 25 mM glucose) for 1 h. The oxygen consumption was measured by the XF24 extracellular flux analyzer (Seahorse Biosciences) in unbuffered DMEM assay medium supplemented with 1 mM pyruvate and 25 mM glucose after 45 to 60 min equilibration.
The characteristic function of mature hepatocytes is metabolism/thermogenesis, driven by the catabolic breakdown of lipids. To distinguish these tumor cells at a functional level, the oxygen consumption rate (OCR) and extracellular acidification rate (ECAR) were analyzed as previously described (Ahfeldt et al.). It was observed that the basal OCR and ECAR rates were highest in the Nanog-silenced TICs. Compounds were added that modulated mitochondrial function sequentially and measured the effect on OCR and ECAR after the addition of each compound. Oligomycin was first administered to determine ATP turnover and the degree of proton leakage. […] After the addition of the electron transport chain decoupler (FCCP), the maximal respiratory capacity was measured. […] Finally, antimycin was administered to inhibit the flux of electrons through complex III and prevent oxygen consumption by the cytochrome c oxidase in the mitochondria as previously described. For determination of individual ETC complex activities, mitochondrial biogenesis was profiled by adding perturbation drugs: 2 μM oligomycin, 0.5 μM FCCP and 5 μM antimycin A/rotenone, in succession. OCR for complexes II-IV was measured by first inhibiting complex I with rotenone; OCR for complexes III-IV was measured by first inhibiting complex II with […]; and OCR for complex IV was measured by first inhibiting complex III with antimycin. The Etomoxir (ETO, 100 μM)-sensitive component of oxygen consumption rate (OCR) represents FAO. Absolute values of OCR were expressed as pmol min^−1 per 10^6 cells and mpH min^−1 per 10^6 cells. OCR and ECAR were determined by plotting the oxygen tension and acidification of the medium in the chamber as a function of time and normalized to protein concentration (picomoles per minute per milligram), respectively. […]
The ECAR was measured over time at 10 min intervals. […] By uncoupling the proton gradient with FCCP, the maximum OCR rates were determined over the next two time intervals (II). By addition of glycolysis inhibitor (2-DG) or CPT1 inhibitor (ETO), the OCR rates were determined over the next two time intervals (III). […]

[2] = system: TICs; experiment: ATP production measurements; assay type: cell-based; conditions: inhibitors for 4 hr
Experimental: Relative ATP/cell assays were performed in 96-well plates. After cells were treated with inhibitors for 4 hr, culture media was removed. Cell Titer-Glo (100 μl: Promega) and CyQUANT (Invitrogen) were immediately added to each well. Luminescence and fluorescence readings were consecutively measured after room-temperature incubation for 10 min.

[3] = system: TICs; experiment: Cytochrome c release, immunoblot of cytosol and heavy membrane fractions; assay type: cell-based
[4] = system: mouse TICs; experiment: TIC xenograft in NOG mice, sorafenib resistance; assay type: in vivo; conditions: mouse TICs subcutaneously in NOG mice
[5] = system: TICs; experiment: ROS levels and spheroid formation of TICs; assay type: cell-based
Experimental: To evaluate the status of mitochondria in TICs, the MitoTracker® Mitochondrion-selective probes for total mitochondrial mass (MitoTracker® Deep Red FM Invitrogen: M22426) and for oxidized state mitochondria (MitoSOX™ Red mitochondrial superoxide indicator) were added to the media, respectively, and cells subjected to FACS analyses. ROS labeling was performed as per the instructions for CellROX® Oxidative stress reagent Probes (CellROX® green reagent, Invitrogen C10444). In brief, the cells were incubated with staining solution (100 nM) in culture media at 37° C. for 30 minutes. After staining was complete, cells were washed with PBS and analyzed by fluorescent microscopy or flow cytometry.

[6] = system: CD133 (+) Huh7 cells; experiment: CD133 cell viability screening (luminescence, CellTiter-Glo); assay type: cell-based; conditions: Homo sapiens, Huh-7
Experimental: (§1) CD133(+) and CD133(−) Huh7 cells were freshly sorted using the MACS CD133 micro bead kit (Miltenyi Biotec, 130-050-801) and were seeded in 100 μl medium containing 5000 cells per well in a 96-well plate. Once the cells attached, the FDA approved drug library was added to each well to a final concentration of 20 μg/ml in duplicate. After incubation for 48 hours, the cell viability was determined by a luminescence assay. […] After 16 hours, 1 μl of a […] drug solution was individually added to the 96 wells, resulting in a 20 μg/ml final concentration for most compounds. After 48 hours, CellTiter-Glo® Reagent (G8233, Promega) was added and the luminescence signal was measured with an automated plate reader. The raw data for each well was background-corrected by DMSO control wells on the same plate.
Freshly sorted CD133 (+) Huh7 or mouse TICs were plated in 100 μl of medium containing 5000 cells per well in a 96-well plate. After 16 hours, 0.5 μl of a 2 μg/ml, 1 μg/ml, 0.2 μg/ml, 0.1 μg/ml, 0.02 μg/ml, or 0.01 μg/ml compound was added to each well in triplicate, resulting in a 10 μg/ml, 5 μg/ml, 1 μg/ml, 0.5 μg/ml, 0.1 μg/ml, and 0.05 μg/ml final concentration for most compounds, respectively. After 48 hours, the cells were either measured for cell viability by Cell-Glo® Reagent (Promega), or fixed with 1% PFA (paraformaldehyde) and stained with DAPI for high-throughput screening.

[7] = as above; assay type: cell-based; conditions: human, CD133 (−) Huh7 cells (freshly MACS-sorted)
Experimental: as §1

[8] = system: hepatocytes; experiment: Cytochrome c release, immunoblot of cytosol and heavy membrane fractions; assay type: cell-based; conditions: within 1-3 hours post treatment
[9] = system: TICs; conditions: cited from earlier work
[10] = system: TICs; experiment: Stable-isotope glutaminolysis analysis; assay type: cell-based
Experimental: To test the glutamine utilization, TICs were incubated in 1 mM of [U-^13C5, 2,5-^15N2]-glutamine (Cambridge Isotope Laboratory, Cat # CNLM-1275-H-PK) for 4 hr. When [U-^13C5, 2,5-^15N2]-glutamine is taken up by cells, it loses the ^15N on the 5th carbon and is converted to [U-^13C5, 2-^15N]-glutamate, which loses the ^15N on the 2nd carbon and becomes [U-^13C5]-glutamate after rapid equilibration with TCA cycle intermediate α-ketoglutarate. When glutamine and glutamate were analyzed by gas chromatography mass spectrometry (GC-MS) using electronic impact ionization (EI), their TFA derivatives gave rise to C2-C4 (m/z 152) and C2-C5 (m/z 198) fragments. Thus, the [U-^13C5, 2-^15N]-glutamate has a C2-C4 fragment of m/z 156 (M4; contains 3×^13C and a ^15N) and a C2-C5 fragment of […] (M5; contains 4×^13C and a ^15N), which represent the relative abundance of glutamine taken up by the TICs. On the other hand, [U-^13C5]-glutamate has a C2-C4 fragment of m/z 155 (M3; contains 3×^13C) and a C2-C5 fragment of […] (M4; contains 4×^13C). When the [U-^13C5]-glutamate enters TCA cycle metabolism, it will gradually lose the ^13C carbon after each cycle and generate M2, M1, and M0 C2-C4 fragment and M3, M2, M1, and M0 C2-C5 fragment, which represent the TCA cycle activity. […]

O=CC[C@@H](O)[C@H](O)[C@H](O)CO [2-DG, 2-deoxyglucose]
FCCP-induced OCR [1]: not
ATP production [2]: did not significantly lower ATP production

CCOC(=O)[C@@]1(CCCCCCOc2ccc(Cl)cc2)CO1 [ETO, Etomoxir]
FCCP-induced OCR [1]: antagonized
ECAR ([1]; sh-Nanog-TICs): inhibits
ECAR ([1]; sh-Scr-TICs): does not affect
ATP production [2]: reduced ATP production
cytochrome c release from mitochondria ([3]; in response to sorafenib treatment): enhanced
xenograft tumor growth / sorafenib resistance [4]: sensitized TICs to sorafenib

C[n+]1ccc(-c2cc[n+](C)cc2)cc1 [Paraquat]
ROS production [5]: increased ROS production
tumor spheroid formation of TICs [5]: significantly reduced

COc1cc(C)c(/C=C/C(C)=C/C=C/C(C)=C/C(=O)O)c(C)c1C [acitretin]
viability at 20 µg/mL ([6]; 20 μg/ml, 48 hours): 12%
IC50 ([6]; CD133 killing effect, FIG. 44A): 7.37 µg/mL and 22.6 µM
viability at 48 h, 20 μg/ml [7]: 70.4%

CNC(=O)c1cc(Oc2ccc(NC(=O)Nc3ccc(Cl)c(C(F)(F)F)c3)cc2)ccn1 [sorafenib]
cytochrome c localisation following sorafenib treatment ([3]; TICs): remained mostly in the heavy membrane (HM) fraction
cytochrome c localisation following sorafenib treatment [8]: translocated from mitochondria into the soluble fraction
xenograft tumor growth / sorafenib resistance [4]: very resistant
tumor size reduction ([9]; sorafenib combined with knockdown of YAP1 (Chen et al., 2013)): ~55%
suppression of tumor growth ([9]; sorafenib with antagonism of NANOG in TICs, tumor-bearing mice (Huynh et al., 2009)): ~90%

C=CC(N)CCC(=O)O (stereo not shown) [vigabatrin]
percentage of labeled succinate [10]: does not reduce
